As usually defined, the IC50 is the midpoint of a concentration-inhibition curve. As a reminder, the DC50 is the concentration giving 50% degradation. A low value points to degradation at low concentration.

The results in this text go back to patent US11890288B2, “Sulfonamide or sulfinamide compound having effect of inducing BRD4 protein degradation and pharmaceutical use thereof” (MITSUBISHI TANABE PHARMA CORPORATION, priority 2020, dated 2024).

For experiment [1], the system named is human prostate cancer LNCaP cells. As to the kind of experiment: Cytotoxic action on LNCaP cells (WST-8, 96 hr). The class given is cell-based. The conditions noted are these: 96 hr culture. Summed up:
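Overnight pre-culture (10% FBS/RPMI1640, 37° C, 5% CO2) → compound from DMSO stock diluted in medium → 96 hr → WST-8 viable count. IC50 = conc. at 50% survival vs untreated, linear interpolation. (+)-JQ1 as positive control.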
On the technique in general: Formazan colour is commonly taken as a measure of viable cells.

Experiment [2] deals with BRD4 protein (Homo sapiens (Human), UniProt O60885). The experiment can be described thus: BRD4 protein degradation inducing action in LNCaP cells (immunofluorescence, 6 hr). The conditions noted are these: anti-BRD4 fluorescence intensity. The class given is cell-based. Summed up: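 LNCaP cells in 10% FBS/RPMI1640 exposed to compound for 6 hr, fixed, permeabilized and immunostained for BRD4 with Alexa Fluor 546 secondary; fluorescence (ex 560, em 572 nm) read by imaging. DC50 = concentration giving 50% of untreated signal, interpolated linearly between the two bracketing points.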

`Cc1sc2c(c1C)C(c1ccc(-c3ccc(C(=O)NCc4ccc(S(=O)(=O)Nc5ccc(C)c6c(C#N)c[nH]c56)cc4)cc3F)cc1)=N[C@@H](CC(=O)OC(C)(C)C)c1nnc(C)n1-2` [Example Compound 142, t-butyl [(6S)-4-{4′-[({4-[(3-cyano-4-methyl-1H-indol-7-yl)sulfamoyl]phenyl}methyl)carbamoyl]-2′-fluoro[1,1′-biphenyl]-4-yl)-2,3,9-trimethyl-6H-thieno[3,2-f][1,2,4]triazolo[4,3-a][1,4]diazepin-6-yl]acetate] returned an IC50 in experiment [1] of 1.3 nM. This compound also displayed a DC50 in experiment [2] of 0.51 nM.
On the same counts, the results for `COC(=O)C[C@@H]1N=C(c2ccc(-c3ccc(C(=O)N[C@H](C)c4ccc(S(=O)(=O)Nc5ccc(C)c6c(C#N)c[nH]c56)cc4)cc3)cc2)c2c(sc(C)c2C)-n2c(C)nnc21` [Example 26, methyl [(6S)-4-(4′-{[(1R)-1-{4-[(3-cyano-4-methyl-1H-indol-7-yl)sulfamoyl]phenyl}ethyl]carbamoyl}[1,1′-biphenyl]-4-yl)-2,3,9-trimethyl-6H-thieno[3,2-f][1,2,4]triazolo[4,3-a][1,4]diazepin-6-yl]acetate] are 0.1 nM and 0.14 nM.
On the same counts, the results for `CCc1ccc(NS(=O)(=O)c2ccc(CNC(=O)c3ccc(-c4ccc(C5=N[C@@H](CC(=O)OC)c6nnc(C)n6-c6sc(C)c(C)c65)cc4)c(F)c3F)cc2)c2[nH]cc(C#N)c12` [Example Compound 118, methyl [(6S)-4-{4′-[({4-[(3-cyano-4-ethyl-1H-indol-7-yl)sulfamoyl]phenyl}methyl)carbamoyl]-2′,3′-difluoro[1,1′-biphenyl]-4-yl}-2,3,9-trimethyl-6H-thieno[3,2-f][1,2,4]triazolo[4,3-a][1,4]diazepin-6-yl]acetate] are 0.32 nM and 0.14 nM.
Consider `CCc1ccc(NS(=O)(=O)c2ccc(CCNC(=O)c3cnc(-c4ccc(C5=N[C@@H](CC(=O)OC)c6nnc(C)n6-c6sc(C)c(C)c65)cc4)cn3)cc2)c2[nH]cc(C#N)c12` [Example 107, methyl [(6S)-4-(4-{5-[(2-{4-[(3-cyano-4-ethyl-1H-indol-7-yl)sulfamoyl]phenyl}ethyl)carbamoyl]pyrazin-2-yl}phenyl)-2,3,9-trimethyl-6H-thieno[3,2-f][1,2,4]triazolo[4,3-a][1,4]diazepin-6-yl]acetate], for which, in experiment [1], it took 0.26 nM to reach half-maximal inhibition (IC50). Further, in experiment [2], half-maximal degradation (DC50) was put at 0.046 nM.
For `COC(=O)C[C@@H]1N=C(c2ccc(-c3ccc(C(=O)N[C@H](C)c4ccc(S(=O)(=O)Nc5ccc(C)c6c(C#N)c[nH]c56)cc4)c(F)c3F)cc2)c2c(sc(C)c2C)-n2c(C)nnc21` [Example 99, methyl [(6S)-4-(4′-{[(1R)-1-{4-[(3-cyano-4-methyl-1H-indol-7-yl)sulfamoyl]phenyl}ethyl]carbamoyl}-2′,3′-difluoro[1,1′-biphenyl]-4-yl)-2,3,9-trimethyl-6H-thieno[3,2-f][1,2,4]triazolo[4,3-a][1,4]diazepin-6-yl]acetate], in experiment [1], the IC50 is 0.14 nM. In addition, it took 0.091 nM to reach half-maximal degradation in experiment [2] (DC50).
On the same counts, the results for `Cc1sc2c(c1C)C(c1ccc(-c3cnc(C(=O)NCc4ccc(S(=O)(=O)Nc5ccc(C)c6c(C#N)c[nH]c56)cc4)cn3)cc1)=N[C@@H](CC(=O)OC(C)(C)C)c1nnc(C)n1-2` [Example Compound 148, t-butyl [(6S)-4-(4-{5-[({4-[(3-cyano-4-methyl-1H-indol-7-yl)sulfamoyl]phenyl}methyl)carbamoyl]pyrazin-2-yl}phenyl)-2,3,9-trimethyl-6H-thieno[3,2-f][1,2,4]triazolo[4,3-a][1,4]diazepin-6-yl]acetate] are 0.2 nM and 0.042 nM.
Turning to `CCc1ccc(NS(=O)(=O)c2ccc(CNC(=O)c3ccc(-c4ccc(C5=N[C@@H](CC(=O)OC)c6nnc(C)n6-c6sc(C)c(C)c65)cc4)c(F)c3)cc2)c2[nH]cc(C#N)c12` [Example Compound 115, methyl [(6S)-4-{4′-[({4-[(3-cyano-4-ethyl-1H-indol-7-yl)sulfamoyl]phenyl}methyl)carbamoyl]-2′-fluoro[1,1′-biphenyl]-4-yl}-2,3,9-trimethyl-6H-thieno[3,2-f][1,2,4]triazolo[4,3-a][1,4]diazepin-6-yl]acetate], the IC50 in experiment [1] was 0.32 nM. Also, the DC50 in experiment [2] amounted to 0.13 nM.
On the same counts, the results for `COC(=O)C[C@@H]1N=C(c2ccc(-c3ccc(C(=O)NCc4ccc(S(=O)(=O)Nc5ccc(C)c6c(C#N)c[nH]c56)cc4)nn3)cc2)c2c(sc(C)c2C)-n2c(C)nnc21` [Example Compound 149, methyl [(6S)-4-(4-{6-[({4-[(3-cyano-4-methyl-1H-indol-7-yl)sulfamoyl]phenyl}methyl)carbamoyl]pyridazin-3-yl}phenyl)-2,3,9-trimethyl-6H-thieno[3,2-f][1,2,4]triazolo[4,3-a][1,4]diazepin-6-yl]acetate] are 0.54 nM and 0.18 nM.
On the same counts, the results for `COC(=O)C[C@@H]1N=C(c2ccc(N3CC[C@@H](C(=O)NCc4ccc(S(=O)(=O)Nc5ccc(C)c6c(C#N)c[nH]c56)cc4)C3)cc2)c2c(sc(C)c2C)-n2c(C)nnc21` [Example 4, methyl [(6S)-4-(4-{(3R)-3-[({4-[(3-cyano-4-methyl-1H-indol-7-yl)sulfamoyl]phenyl}methyl)carbamoyl]pyrrolidin-1-yl}phenyl)-2,3,9-trimethyl-6H-thieno[3,2-f][1,2,4]triazolo[4,3-a][1,4]diazepin-6-yl]acetate] are 16 nM and 38 nM.
On the same counts, the results for `COC(=O)C[C@@H]1N=C(c2ccc(-c3ccc(C(=O)N[C@H](C)c4ccc(S(=O)(=O)Nc5ccc(C)c6c(C#N)c[nH]c56)cc4)c(F)c3)cc2)c2c(sc(C)c2C)-n2c(C)nnc21` [Example 69, methyl [(6S)-4-(4′-{[(1R)-1-{4-[(3-cyano-4-methyl-1H-indol-7-yl)sulfamoyl]phenyl}ethyl]carbamoyl}-3′-fluoro[1,1′-biphenyl]-4-yl)-2,3,9-trimethyl-6H-thieno[3,2-f][1,2,4]triazolo[4,3-a][1,4]diazepin-6-yl]acetate] are 0.12 nM and 0.056 nM.
Take `Cc1sc2c(c1C)C(c1ccc(-c3ccc(C(=O)NCc4ccc(S(=O)(=O)Nc5ccc(C)c6c(C#N)c[nH]c56)cc4)cc3)cc1)=N[C@@H](C)c1nnc(C)n1-2` [Example 32, N-({4-[(3-cyano-4-methyl-1H-indol-7-yl)sulfamoyl]phenyl}methyl)-4′-[(6S)-2,3,6,9-tetramethyl-6H-thieno[3,2-f][1,2,4]triazolo[4,3-a][1,4]diazepin-4-yl][1,1′-biphenyl]-4-carboxamide]: inhibition in experiment [1] was half-maximal at 0.69 nM (IC50). For the same compound, half-maximal degradation in experiment [2] (DC50) was put at 0.42 nM.
On the same counts, the results for `CCc1ccc(NS(=O)(=O)c2ccc(CCNC(=O)c3ccc(-c4ccc(C5=N[C@@H](CC(=O)OC)c6nnc(C)n6-c6sc(C)c(C)c65)cc4)c(F)c3)cc2)c2[nH]cc(C#N)c12` [Example Compound 124, methyl [(6S)-4-{4′-[(2-{4-[(3-cyano-4-ethyl-1H-indol-7-yl)sulfamoyl]phenyl}ethyl)carbamoyl]-2′-fluoro[1,1′-biphenyl]-4-yl}-2,3,9-trimethyl-6H-thieno[3,2-f][1,2,4]triazolo[4,3-a][1,4]diazepin-6-yl]acetate] are 0.27 nM and 0.095 nM.
Turning to `COC(=O)C[C@@H]1N=C(c2ccc(-c3cnc(C(=O)N[C@H](C)c4ccc(S(=O)(=O)Nc5ccc(C)c6c(C#N)c[nH]c56)cc4)cn3)cc2)c2c(sc(C)c2C)-n2c(C)nnc21` [Example 103, methyl {(6S)-4-[4-(5-{[(1R)-1-{4-[(3-cyano-4-methyl-1H-indol-7-yl)sulfamoyl]phenyl}ethyl]carbamoyl}pyrazin-2-yl)phenyl]-2,3,9-trimethyl-6H-thieno[3,2-f][1,2,4]triazolo[4,3-a][1,4]diazepin-6-yl}acetate], the half-maximal inhibitory concentration (IC50) in experiment [1] was 0.067 nM. Besides, in experiment [2], the DC50 was 0.03 nM.
On the same counts, the results for `CCc1ccc(NS(=O)(=O)c2ccc([C@@H](C)NC(=O)c3ccc(-c4ccc(C5=N[C@@H](CC(=O)OC(C)(C)C)c6nnc(C)n6-c6sc(C)c(C)c65)cc4)cc3)cc2)c2[nH]cc(C#N)c12` [Example Compound 136, t-butyl [(6S)-4-(4′-{[(1R)-1-{4-[(3-cyano-4-ethyl-1H-indol-7-yl)sulfamoyl]phenyl}ethyl]carbamoyl}[1,1′-biphenyl]-4-yl)-2,3,9-trimethyl-6H-thieno[3,2-f][1,2,4]triazolo[4,3-a][1,4]diazepin-6-yl]acetate] are 0.6 nM and 0.25 nM.
On the same counts, the results for `Cc1sc2c(c1C)C(c1ccc(-c3ccc(C(=O)NCc4ccc(S(=O)(=O)Nc5ccc(C)c6c(C#N)c[nH]c56)cc4)nc3)cc1)=N[C@@H](CC(=O)OC(C)(C)C)c1nnc(C)n1-2` [Example Compound 145, t-butyl [(6S)-4-(4-{6-[({4-[(3-cyano-4-methyl-1H-indol-7-yl)sulfamoyl]phenyl}methyl)carbamoyl]pyridin-3-yl}phenyl)-2,3,9-trimethyl-6H-thieno[3,2-f][1,2,4]triazolo[4,3-a][1,4]diazepin-6-yl]acetate] are 0.44 nM and 0.17 nM.
On the same counts, the results for `CCc1ccc(NS(=O)(=O)c2ccc([C@@H](C)NC(=O)c3ccc(-c4ccc(C5=N[C@@H](CC(=O)OC)c6nnc(C)n6-c6sc(C)c(C)c65)cc4)c(F)c3F)cc2)c2[nH]cc(C#N)c12` [Example Compound 122, methyl [(6S)-4-(4′-{[(1R)-1-{4-[(3-cyano-4-ethyl-1H-indol-7-yl)sulfamoyl]phenyl}ethyl]carbamoyl}-2′,3′-difluoro[1,1′-biphenyl]-4-yl)-2,3,9-trimethyl-6H-thieno[3,2-f][1,2,4]triazolo[4,3-a][1,4]diazepin-6-yl]acetate] are 0.39 nM and 0.14 nM.
